Assay results taken from US6117645A, “Human LH-RH receptor expression cells and use thereof” (Takeda Chemical Industries, Ltd., priority 1994, dated 2000).

Target: T1, human LH-RH receptor (Homo sapiens, UniProt P30968)
T1 construct: cell membrane fraction or whole cells
T1 sequence (P30968 1-328): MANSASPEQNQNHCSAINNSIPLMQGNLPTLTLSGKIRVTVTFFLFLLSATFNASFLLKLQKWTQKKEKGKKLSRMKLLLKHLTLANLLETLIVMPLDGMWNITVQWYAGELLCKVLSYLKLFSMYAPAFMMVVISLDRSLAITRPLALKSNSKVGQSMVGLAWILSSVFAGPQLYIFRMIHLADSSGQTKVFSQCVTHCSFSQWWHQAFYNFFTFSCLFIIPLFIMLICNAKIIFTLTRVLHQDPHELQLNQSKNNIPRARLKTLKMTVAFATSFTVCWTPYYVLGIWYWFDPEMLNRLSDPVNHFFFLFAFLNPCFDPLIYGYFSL
Assay: [125I]-leuprorelin binding inhibition, CHO cell membrane fraction
Conditions: 2 μl of 2 mM compound in 60% DMSO added to 188 μl of 200 μg/ml membrane fraction with 10 μl of 3.6 nM [125I]-leuprorelin; 25° C., 60 minutes
Experimental: The human LH-RH receptor expression cells (10^9 cells) obtained in Example 2 were suspended in phosphate buffered saline containing 5 mM EDTA (PBS-EDTA), and centrifuged at 100×g for 5 minutes. To cell pellets, 10 ml of a cell homogenating buffer (10 mM NaHCO3, 5 mM EDTA, pH 7.5) was added, followed by homogenization with a Polytron homogenizer. After centrifugation at 400×g for 15 minutes, the supernatant was placed in an ultracentrifugal tube, and centrifuged at 100,000×g for 1 hour to obtain a cell membrane fraction precipitate. This precipitate was suspended in 2 ml of an assay buffer, and centrifuged at 100,000×g for 1 hour. The cell membrane fraction recovered as a precipitate was suspended in 20 ml of the assay buffer again. The suspension was dispensed and stored at -80° C. It was defrosted at every time of use. […]
Using the human LH-RH receptor expression CHO cell membrane fraction, reaction was conducted at 25° C. for 60 minutes. […] After the filtration, the radioactivity of [^125 I]-leuprorelin left on the filter was measured with a gamma-ray counter.
The binding inhibition rate of each sample to be tested was determined according to the following equation: [formula] wherein SB represents the radioactivity when the compound is added, TB represents the maximum binding radioactivity, and NSB represents the non-specific binding radioactivity.

CCOC(=O)c1cn(Cc2ccccc2OC)c2sc(-c3ccc(OC)cc3)c(C)c2c1=O [Reference Example 9]
inhibition at 2000 µM (stock): 67%
